Results reported in ChEMBL document CHEMBL1126852 (J Med Chem, 1993).

Columns and labels:
[1] = target: T1, Dihydrofolate reductase (Rattus norvegicus, UniProt Q920D2)
T1 sequence (Q920D2 whole entry): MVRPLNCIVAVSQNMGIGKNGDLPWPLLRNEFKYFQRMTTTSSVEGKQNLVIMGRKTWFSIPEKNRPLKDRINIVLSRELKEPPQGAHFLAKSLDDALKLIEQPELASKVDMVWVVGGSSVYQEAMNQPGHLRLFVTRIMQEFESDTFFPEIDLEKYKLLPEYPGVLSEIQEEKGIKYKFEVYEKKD
Description: Inhibition of rat liver dihydrofolate reductase.

[2] = system: CCRF-CEM; assay: Tested for cell growth inhibition in CCRF-CEM lymphoblasts; assay type: functional, cell-based; details: Homo sapiens
[3] = target: Dihydrofolate reductase (Lactobacillus casei, UniProt P00381); assay: Tested for inhibitory activity against dihydrofolate reductase in Lactobacillus casei; parameters: species or system Lacticaseibacillus casei
[4] = target: T2, Dihydrofolate reductase (Homo sapiens, UniProt P00374); assay: Tested for inhibitory activity against dihydrofolate reductase in human
T2 sequence (P00374 whole entry): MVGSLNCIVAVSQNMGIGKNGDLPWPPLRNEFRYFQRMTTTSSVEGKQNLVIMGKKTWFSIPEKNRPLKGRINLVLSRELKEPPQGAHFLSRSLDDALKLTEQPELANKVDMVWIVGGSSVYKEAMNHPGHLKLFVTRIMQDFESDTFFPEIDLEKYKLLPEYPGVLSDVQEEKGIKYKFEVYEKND

[5] = target: T3, Bifunctional dihydrofolate reductase-thymidylate synthase (Toxoplasma gondii, UniProt Q07422); assay: Tested for inhibitory activity against dihydrofolate reductase in Toxoplasma gondii
T3 sequence (Q07422 whole entry): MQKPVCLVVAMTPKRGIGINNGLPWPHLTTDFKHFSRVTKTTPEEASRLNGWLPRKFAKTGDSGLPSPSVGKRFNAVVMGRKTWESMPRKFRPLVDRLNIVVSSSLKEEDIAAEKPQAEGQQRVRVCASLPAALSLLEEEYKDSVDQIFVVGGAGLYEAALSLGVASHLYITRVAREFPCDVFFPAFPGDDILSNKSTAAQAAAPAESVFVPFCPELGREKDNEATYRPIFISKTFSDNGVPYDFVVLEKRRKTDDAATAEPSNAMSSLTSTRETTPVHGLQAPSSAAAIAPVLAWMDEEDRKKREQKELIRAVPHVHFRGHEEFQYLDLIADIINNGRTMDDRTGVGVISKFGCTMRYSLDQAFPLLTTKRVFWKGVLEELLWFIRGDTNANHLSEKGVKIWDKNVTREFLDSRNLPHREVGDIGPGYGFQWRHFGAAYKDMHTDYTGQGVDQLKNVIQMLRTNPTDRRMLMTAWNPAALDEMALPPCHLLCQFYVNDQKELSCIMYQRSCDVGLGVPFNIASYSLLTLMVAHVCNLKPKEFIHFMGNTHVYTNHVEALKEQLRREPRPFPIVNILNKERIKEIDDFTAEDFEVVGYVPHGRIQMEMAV

[6] = target: T4, Dihydrofolate reductase (Pneumocystis carinii, UniProt P16184); assay: Tested for inhibitory activity against dihydrofolate reductase in pneumocystis carinii
T4 sequence (P16184 whole entry): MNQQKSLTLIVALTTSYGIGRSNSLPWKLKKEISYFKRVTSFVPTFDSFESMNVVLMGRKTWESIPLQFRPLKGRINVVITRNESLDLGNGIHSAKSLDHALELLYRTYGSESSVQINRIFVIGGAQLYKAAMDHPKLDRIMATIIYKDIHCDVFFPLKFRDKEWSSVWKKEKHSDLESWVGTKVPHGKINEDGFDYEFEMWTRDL

Sequence of Dihydrofolate reductase (Lactobacillus casei, UniProt P00381) (P00381 whole entry): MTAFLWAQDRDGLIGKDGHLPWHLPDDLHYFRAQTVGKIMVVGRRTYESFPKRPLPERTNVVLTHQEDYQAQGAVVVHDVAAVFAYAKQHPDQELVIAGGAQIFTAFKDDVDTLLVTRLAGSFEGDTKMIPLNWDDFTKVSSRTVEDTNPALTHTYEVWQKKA

| Structure (SMILES) | IC50 [1] [µM] | IC50 [4] [µM] | other results |
| --- | --- | --- | --- |
| Cc1c(-c2ccccc2)sc2nc(N)nc(N)c12 | – | – | IC50 [2]: 14 µM |
| Nc1nc(N)c2c3c(sc2n1)CCCCCCCCCC3 | 9.3 | – | IC50 [2]: 3.7 µM; IC50 [3]: 12 µM |
| COc1ccc(OC)c(Cc2sc3nc(N)nc(N)c3c2C)c1 | 0.4 | 0.73 | – |
| Nc1nc(N)c2c3c(sc2n1)CCCCCC3 | – | – | IC50 [2]: 12 µM |
| Nc1nc(N)c2c3c(sc2n1)CN(Cc1ccccc1)CC3 | 0.57 | – | IC50 [5]: 0.85 µM; IC50 [6]: 5.2 µM |
| Cc1c(Cc2ccccc2)sc2nc(N)nc(N)c12 | 14 | – | IC50 [2]: 15 µM; IC50 [3]: 1.3 µM |
| COc1ccc(OC)c(-c2sc3nc(N)nc(N)c3c2C)c1 | 0.37 | 0.75 | – |
| Nc1nc(N)c2c3c(sc2n1)CCCCC3 | 1.3 | – | – |

More lines, main results first:

| IC50 [1] [µM] | IC50 [4] [µM] | Structure (SMILES) | other results |
| --- | --- | --- | --- |
| 26 | – | COc1ccc(OC)c(CCCc2csc3nc(N)nc(N)c23)c1 | – |
| 3.1 | – | COc1ccc(OC)c(CCc2csc3nc(N)nc(N)c23)c1 | – |
| > 100 | – | Cc1sc2nc(N)nc(N)c2c1-c1ccc(Cl)cc1 | IC50 [3]: > 50 µM |
| 4.6 | – | Cc1c(-c2ccc(Cl)c(Cl)c2)sc2nc(N)nc(N)c12 | IC50 [3]: 2 µM |
| > 37 | – | Cc1sc2nc(N)nc(N)c2c1Cc1ccccc1 | IC50 [3]: > 50 µM |
| 51 | > 10 | COc1cc(Cc2sc3nc(N)nc(N)c3c2C)cc(OC)c1OC | – |
| 5.9 | > 10 | COc1ccc(OC)c(CCc2sc3nc(N)nc(N)c3c2C)c1 | – |
| 25 | > 10 | COc1cc(CCc2sc3nc(N)nc(N)c3c2C)cc(OC)c1OC | – |
| 3.9 | – | Nc1nc(N)c2c3c(sc2n1)CCCC3 | – |
| 1.8 | > 10 | COc1cc(-c2sc3nc(N)nc(N)c3c2C)cc(OC)c1OC | – |
